In paper PMC5754397, “Population pharmacokinetics of nintedanib, an inhibitor of tyrosine kinases, in patients with non-small cell lung cancer or idiopathic pulmonary fibrosis” (Cancer Chemotherapy and Pharmacology, 2017):
“And” between values parts separate entries of the source, which are not always exact repeats. Equal values may be shown once. Marks after values point to notes of the source that are not given here. Blank lines part the entries; values can stand above or below the compound they belong to.

How the values were obtained:
target receptors = tested on: target receptors; parameters: method as in PMID 21204634; details: cited from earlier work
[1] = Population pharmacokinetic analysis in healthy subjects after intravenous administration of nintedanib (one-compartment model); assay type: in vivo, human; details: healthy subjects, intravenous nintedanib; estimate (RSE%)
Source text: The pharmacokinetic profile of BIBF 1202 was best described by a one-compartment model with first-order elimination (see Online Resource Fig. S1 for model structure). To account for formation of BIBF 1202 in the intestine or via hepatic first-pass effect, a first-order absorption with lag time (ALAG2) was implemented as per nintedanib absorption. The relative bioavailability (F2) and the absorption-rate constant (k a2) were implemented as functions of nintedanib F1 and k a, respectively (substantial drop in OFV as compared to a model, where F2 and k a2 were estimated independently of F1 and k a). This parametrization accounted for correlations between nintedanib and BIBF 1202 parameters and replaced the full variance–covariance matrix which was not applied due to the sequential modeling approach used. The rate of formation of BIBF 1202 (k met) during nintedanib systemic elimination was accounted by defining it as a function of nintedanib clearance: k met = CL/V2*ffM, where CL and V2 denote the clearance and central volume of distribution of nintedanib respectively, and ffM denotes the proportion of the nintedanib elimination resulting in BIBF 1202 formation. Due to the lack of data for BIBF 1202 given as an intravenous (IV) infusion, several parameter estimates were not identifiable (ffM, BIBF 1202 apparent volume of distribution [V3/F]) and were, therefore, fixed. The value for ffM was derived from pharmacokinetic data after IV administration of nintedanib (Online Resource Table S4) and the ratio of V3/F–V2/F was fixed based on information observed in rats. […] In addition to the (inter-individual) variability of F2 induced by the variability in F1 (F2 being proportional to F1), additional IIV could be implemented for F2.
Table S4 Structural parameters for nintedanib and BIBF 1202 from a population pharmacokinetic analysis based on healthy subjects (n=23^a, 372 observations) after intravenous administration of nintedanib
One subject (3 mg dose) was excluded from analysis due to increasing plasma concentrations of nintedanib after end of infusion

[2] = Population pharmacokinetic model of metabolite BIBF 1202 plasma concentrations in patients with NSCLC or IPF treated with nintedanib; assay type: in vivo, human
Source text: This population pharmacokinetic analysis pooled data from nintedanib treatment in four clinical studies; 1 Phase II (n = 73) and two Phase III trials in patients with NSCLC (LUME-Lung 1 (n = 652) and LUME-Lung 2 (n = 347)) and one Phase II trial (TOMORROW, n = 343) in patients with IPF [11] (data from IPF Phase III trials were not available at time of analysis). An overview of these studies is provided in Online Resource Table S1. In the NSCLC Phase II trial, patients with locally advanced or metastatic relapsed NSCLC in whom first- or second line platinum-based chemotherapy had failed and were randomized to nintedanib 150 or 250 mg twice-daily. Treatment continued until disease progression or intolerable toxicity. In the NSCLC Phase III trials, nintedanib 200 mg twice-daily or placebo was given in repeated 21 day treatment cycles in combination with single infusions of docetaxel 75 mg/m^2 (LUME-Lung 1 trial) or pemetrexed 500 mg/m^2 (LUME-Lung 2 trial), administered on day 1 of each cycle. Treatment cycles were continued until disease progression or intolerable toxicity. In the Phase II trial in patients with IPF [11], patients were randomized to a 52-week treatment period with one of the four doses of nintedanib (50 mg once or twice-daily, 100, 150 mg twice-daily) or placebo. In all four trials, dose reductions and interruptions were allowed to manage adverse events. All studies were conducted in accordance with the Declaration of Helsinki and with approval of the local ethics committees. Written informed consent was obtained from all patients before study entry.
Blood sampling schema for measurement of nintedanib plasma concentrations varied. For all trials, at least two pre-dose and two post-dose blood samples were scheduled during treatment (see Online Resource Table S1). In addition, more extensive sampling was performed in the two Phase II trials. Nintedanib and BIBF 1202 plasma concentrations were analyzed by validated liquid chromatography–mass spectrometry (HPLC–MS/MS) methods. The calibration curves covered the range 0.5–500 ng/mL for nintedanib and 1–1000 ng/mL for BIBF 1202 in undiluted plasma samples and were linear over this range.
The population pharmacokinetic analysis was performed using non-linear mixed-effects modeling techniques (NONMEM, version VI 2.0, ICON Development Solutions, Ellicott City, Maryland, USA). The first-order conditional estimation algorithm with interaction was used. Data processing, diagnostic plots, and calculation of descriptive statistics were performed using R version 2.12.1 (http://www.rproject.org) and SAS version 9.2 (SAS Institute Inc, Cary, NC, USA). Bootstrap analysis was performed using Perl-speaks-NONMEM, version 3.5.3 [24, 25].
Using fixed pharmacokinetic parameter estimates from the nintedanib base model (typical values plus empirical Bayes estimates of individual η), the base model of BIBF 1202 was developed. Plasma concentrations of nintedanib and BIBF 1202 were reported in nM to account for differences in their molecular weight.
The covariate analysis for BIBF 1202 was based on the fixed pharmacokinetic parameters of the final nintedanib model and base model of BIBF 1202 and followed the same principles described for nintedanib (see Online Resource Table S3).
Model evaluation for BIBF 1202 was analogous to nintedanib, with the exception of the non-parametric bootstrap analysis.
Finally, after the sequential pharmacokinetic analysis for nintedanib and BIBF 1202, the parameters for the final models of nintedanib and BIBF 1202 were estimated simultaneously.
To illustrate individual covariate effects, the change in the median steady-state nintedanib and BIBF 1202 plasma concentration–time profiles were compared to the exposure in a typical patient. The typical patient was defined by baseline medians (continuous covariate) and modes (categorical covariate) of the respective covariates in the total analyzed population. […]

PDGFRα = tested on: PDGFRα; parameters: method as in Boehringer Ingelheim unpublished data, 14; details: PDGFRα stimulation of primary lung fibroblasts; ref Boehringer Ingelheim unpublished data, 14; cited from earlier work
PDGFRβ = tested on: PDGFRβ; parameters: method as in Boehringer Ingelheim unpublished data, 14; details: PDGFRβ stimulation of primary lung fibroblasts; ref Boehringer Ingelheim unpublished data, 14; cited from earlier work
[3] = tested on: VEGF or bFGF stimulation of human umbilical vascular endothelial cells; parameters: method as in Boehringer Ingelheim unpublished data, 14; details: VEGF or bFGF stimulation of HUVEC; ref Boehringer Ingelheim unpublished data, 14; cited from earlier work
mouse xenograft models = tested on: mouse xenograft models; parameters: method as in ref 7 = [7]; 7. European Medicines Agency (2014) Committee for Medicinal Products for Human Use (CHMP) Assessment Report for Vargatef (nintedanib), 25 September 2014. http://www.ema.europa.eu/docs/en_GB/document_l; details: cited from earlier work
[4] = parameters: method as in PMID 21204634; details: dedicated ADME study; cited from earlier work
[5] = final BIBF 1202 model (sequential fit), estimate (RSE%)
[6] = final BIBF 1202 model (sequential fit), reference Caucasian/Black origin = 1.00, estimate (RSE%)

SMILES: CN1CCN(CC(=O)N(C)c2ccc(N/C(=C3\C(=O)Nc4cc(C(=O)O[C@@H]5O[C@H](C(=O)O)[C@@H](O)[C@H](O)[C@H]5O)ccc43)c3ccccc3)cc2)CC1 [BIBF 1202 glucuronide]
- in vitro activity at the target receptors (target receptors): did not show in vitro activity

- CL2, total body clearance for BIBF 1202 [1]: 0.513 (17.0) L/h
- changes in BIBF 1202 exposure by ECOG performance status and LDH ([2]; covariates influencing BIBF 1202 but not nintedanib exposure): < 30%
- IIV in F2 ([2]; final BIBF 1202 model (sequential fit), estimate (RSE% on the variance scale)): 56.7 (8.60^f) CV% and 56.7 (8.60^e) CV%
- CL2/F (θCL2), apparent total body clearance for BIBF 1202 [2, 5]: 7.05 (6.37) L/h
- F2/F1 (θF2F1), ratio of relative bioavailabilities BIBF 1202 to nintedanib [2, 5]: 0.0110 (11.3)
- covariate effect on F2, θLDH_Breakpoint (breakpoint for LDH) [2, 5]: 688 (22.0) U/L
- covariate effect on F2, θWT [2, 5]: -0.848 (12.2)
- ka2/ka (θka2ka), ratio of absorption rate constants BIBF 1202 to nintedanib [2, 5]: 1.47 (8.16)
- covariate effect on F2, θLDH (coefficient for LDH [U/L]) ([2]; final BIBF 1202 model (sequential fit), hockey-stick function, estimate (RSE%)): 0.000656 (22.1)
- covariate effect on F2, θEthnicity: Asian origin (except for Indian) [2, 6]: 1.20 (4.83)
- covariate effect on F2, θEthnicity: Indian origin [2, 6]: 1.90 (13.5)
- covariate effect on F2, θECOG: ECOG≥1 ([2]; final BIBF 1202 model (sequential fit), reference ECOG=0 = 1.00, estimate (RSE%)): 1.16 (4.16)
- covariate effect on ka2, θTrial: NSCLC Phase II and IPF Phase II ([2]; final BIBF 1202 model (sequential fit), reference LUME-Lung 1 and LUME-Lung 2 = 1.00, estimate (RSE%)): 0.756 (7.72)
- covariate effect on ka2, θNSCLC_histology: non-adenocarcinoma ([2]; final BIBF 1202 model (sequential fit), reference adenocarcinoma = 1.00, estimate (RSE%)): 1.36 (8.90)
- share of BIBF 1202 in plasma formed systemically ([2]; final model, systemic formation rate fixed to the value from the IV study): about 8%
- upper limit of the predicted 2 h post-dose concentration for Indian patients ([2]; pcQPC of the final BIBF 1202 model, 95% prediction interval of simulated medians, steady state): 88 ng/mL
- F2/F1 (θF2F1) ([2]; simultaneous estimation): 0.0153 (–)
- IIV in F2 ([2]; simultaneous estimation): 47.9 (–) CV%
- covariate effect on F2, θECOG: ECOG≥1 ([2]; simultaneous estimation): 1.13 (–)
- covariate effect on F2, θEthnicity: Asian origin (except for Indian) ([2]; simultaneous estimation): 1.19 (–)
- covariate effect on F2, θEthnicity: Indian origin ([2]; simultaneous estimation): 1.81 (–)
- covariate effect on F2, θLDH (coefficient for LDH [U/L]) ([2]; simultaneous estimation): 0.00064 (–)
- covariate effect on F2, θLDH_Breakpoint (breakpoint for LDH) ([2]; simultaneous estimation): 683 (–) U/L
- covariate effect on F2, θWT ([2]; simultaneous estimation): -0.791 (–)
- covariate effect on ka2, θNSCLC_histology: non-adenocarcinoma ([2]; simultaneous estimation): 1.24 (–)
- covariate effect on ka2, θTrial: NSCLC Phase II and IPF Phase II ([2]; simultaneous estimation): 0.864 (–)
- ka2/ka (θka2ka) ([2]; simultaneous estimation): 1.14 (–)
- CL2/F (θCL2) ([2]; simultaneous estimation of nintedanib and BIBF 1202 models, RSE not available): 9.68 (–) L/h
SMILES: CN1CCN(CC(=O)N(C)c2ccc(N/C(=C3\C(=O)Nc4cc(C(=O)O)ccc43)c3ccccc3)cc2)CC1 [BIBF 1202]
- lower potency compared to nintedanib (PDGFRα): 265 fold
- lower potency compared to nintedanib (PDGFRβ): 607 fold
- lower potency compared to nintedanib [3]: 9–10 fold
- efficacy in mouse xenograft models (mouse xenograft models): not effective
- metabolic ratio for AUC (BIBF 1202 to nintedanib) [4]: ~1
- metabolic ratio for Cmax (BIBF 1202 to nintedanib) [4]: ~1
